Measurements from paper PMC6321439, “Structural Elucidation and Cytotoxicity of a New 17-Membered Ring Lactone from Algerian Eryngium campestre” (Molecules, 2018).
In brackets after ≈: the same amount, converted by molar mass. Like-named read-outs stand apart in the source and are kept apart here.

Columns and labels:
[1] = tested on: Trypanosoma brucei rhodesiense, T. cruzi, Plasmodium falciparum and Leishmania donovani axenic and the infected macrophages amastigotes; parameters: method as in PMID 17922552; details: cited from earlier work; for IC50: T. b. rhodesiense, T. cruzi, P. falciparum, L. donovani axenic and infected-macrophage amastigotes, read-out: IC50 on protozoan panel
[2] = Cytotoxicity on WI38 cells; type: cell-based; details: human, WI38 normal human fibroblasts, mean ± SD from at least six values
Procedure: (§1) The crude extract and the newly identified pure compound (91.9%), campestrolide, were evaluated in vitro for their cytotoxicity on two mammalian cell lines: normal human fibroblasts (WI38) and cancerous macrophage-like murine cells. Their antiprotozoal activities were also investigated on Trypanosoma brucei brucei (Tbb. strain 427) bloodstream forms and Leishmania mexicana mexicana (Lmm. MHOM/BZ/84/BEL46) promastigotes. The tests were performed using stock solutions prepared in DMSO at 10 mg/mL. For the cytotoxicity assay, the samples were tested in eight serial 1.7-fold dilutions (150 µL transferred into 100 µL fresh medium) in the 96-well microtiter plates (concentration range: 0.7–25 µg/mL). The camptothecin (Sigma-Aldrich, St.-Louis, MO, USA) was used as a positive control with 5-fold dilutions (concentration range: 0.00032–25 µg/mL) from a 10 mg/mL DMSO stock solution. For the antiparasitic assays, the samples were tested in eight serial 2-fold dilutions (concentration range: 0.20–25 or 0.10–12 µg/mL on Leishmania and Trypanosoma, respectively). Suramine sodium and pentamidine isethionate salts (Sigma-Aldrich, St.-Louis, MO, USA) were used as a positive control with 3-fold dilutions (0.0046–10 µg/mL) from a stock solution of 2 mg/mL as well as amphotericin B. A maximum of 0.5% DMSO was previously verified to be non-toxic in all the biological assays. The IC50 values were determined using Microsoft Excel and GraphPad Prism 7.0 software (GraphPad, San Diego, CA, USA), based on a nonlinear regression. The selectivity index was calculated in comparison to the WI38 cytotoxicity to assess the therapeutic properties as antiparasitic or anticancer hits.

[3] = Cytotoxicity / anticancer activity on J774 cells; type: cell-based; details: mouse, J774 cancerous macrophage-like murine cells, mean ± SD from at least six values
Procedure: as §1

[4] = tested on: Trypanosoma brucei brucei (bloodstream forms); assay: Antitrypanosomal activity in vitro; type: cell-based
Procedure: as §1

[5] = tested on: Leishmania mexicana mexicana promastigotes; assay: Antileishmanial activity in vitro; type: cell-based; details: for IC50: Leishmania mexicana
Procedure: as §1

all tested cells = assay: Summary over cytotoxicity and antiprotozoal assays; type: cell-based; details: read-out: IC50 on all tested cells except Trypanosoma
Procedure: as §1, with “Suramine sodium and pentamidine isethionate salts (Sigma-Aldrich, St.-Louis, MO, USA) were used as a positive control with 3-fold dilutions (0.0046–10 µg/mL) from a stock solution of 2 mg/mL as well as amphotericin B. A maximum of 0.5% DMSO was previously verified to be non-toxic in all the biological assays.” left out

[6] = parameters: method as in earlier work; details: cited from earlier work
[7] = tested on: Trypanosoma brucei brucei; parameters: method as in PMID 22473703; details: cited from earlier work
T. cruzi trypomastigotes = tested on: T. cruzi trypomastigotes; parameters: method as in PMID 22414103; details: at 100 µg/mL; cited from earlier work
cruzain = tested on: cruzain; parameters: method as in PMID 22414103; details: cited from earlier work
[8] = read-out: Cytotoxicity IC50 ± SD WI38
[9] = read-out: Cytotoxicity IC50 ± SD WI38 (µM for pure compound)
[10] = read-out: Cytotoxicity IC50 ± SD J774
[11] = read-out: Cytotoxicity IC50 ± SD J774 (µM for pure compound)
[12] = Trypanosoma brucei, Tbb bloodstream forms, strain 427, read-out: Antiparasitic activity IC50 ± SD Tbb
[13] = Trypanosoma brucei, Tbb bloodstream forms, strain 427, read-out: Antiparasitic activity IC50 ± SD Tbb (µM for pure compound)
[14] = Lmm promastigotes, read-out: Antiparasitic activity IC50 ± SD Lmm
[15] = Lmm promastigotes, read-out: Antiparasitic activity IC50 ± SD Lmm (µM for pure compound)

SMILES: C=CC(C#CC#CC(O)CCCCCCCCC)OC(C)=O (centres unmarked) [8-hydroxyheptadeca-1-ene-4,6-diyn-3-yl ethanoate]
- IC50 [1]: 100 to 2500 nM
- SI compared on L6 rat skeletal myoblasts [1]: > 10

SMILES: C=CC(C#CC#CC(O)CCCCCCCCCCOC(C)=O)OC(C)=O (centres unmarked) [16-acetoxy-11-hydroxyoctadeca-17-ene-12,14-diynyl ethanoate]
- IC50 [1]: 100 to 2500 nM
- SI compared on L6 rat skeletal myoblasts [1]: > 10

SMILES: C=C[C@@H]1C#CC#CC/C=C\CCCCCCCC(=O)O1 [Compound 33, (Z)-17(R)-vinyloxacycloheptadeca-10-en-13,15-diyn-2-one]
- IC50 [2, 8]: 5.2 ± 0.24 µg/mL
- IC50 [2, 9]: 19.2 µM
- IC50 [3, 10]: 4.84 ± 0.1 µg/mL
- IC50 [3, 11]: 17.9 µM
- Antiparasitic activity IC50 ± SD Tbb ([4]; Tbb bloodstream forms, strain 427): 0.59 ± 0.08 µg/mL
- IC50 ([4]; Tbb bloodstream forms, strain 427, read-out: Antiparasitic activity IC50 ± SD Tbb (µM for pure compound)): 2.17 µM
- IC50 [4, 12]: 0.6 µg/mL
- IC50 [4, 13]: 2.2 µM
- Selectivity Index IC50 WI38/IC50 Parasite, Tbb ([4]; compared to WI38 cytotoxicity): 8.9
- IC50 [5, 14]: 3.43 ± 0.02 µg/mL
- IC50 [5, 15]: 12.7 µM
- Selectivity Index IC50 WI38/IC50 Parasite, Lmm ([5]; compared to WI38 cytotoxicity): 1.5
- IC50 (all tested cells): 12500 to 19500 nM

SMILES: C=C[C@H](O)C#CC#CC/C=C\CCCCCCC [Falcarinol]
- reported log P [6]: 5.50
- SI compared to HeLa cytotoxicity ([7]; T. b. brucei compared to HeLa): 858
- IC50 [7]: 40 nM
- IC50 on Trypanosoma brucei brucei [7]: 0.01 µg/mL (≈ 0.0409 µM)

SMILES: C[C@@H]1[C@H](O)[C@@H](C)/C=C/C=C/C=C/C=C/C=C/C=C/C=C/[C@H](O[C@@H]2O[C@H](C)[C@@H](O)[C@H](N)[C@@H]2O)C[C@@H]2O[C@](O)(C[C@@H](O)C[C@@H](O)[C@H](O)CC[C@@H](O)C[C@@H](O)CC(=O)O[C@H]1C)C[C@H](O)[C@H]2C(=O)O [amphotericin B, reference compound]
- IC50 ([5]; read-out: Antiparasitic activity IC50 ± SD Lmm (µM for pure compound)): 0.09 ± 0.06 µM

SMILES: CC[C@@]1(O)C(=O)OCc2c1cc1n(c2=O)Cc2cc3ccccc3nc2-1 [camptothecin, reference compound]
- IC50 [2, 8]: 0.036 ± 0.022 µg/mL
- IC50 [2, 9]: 0.103 µM
- IC50 [3, 10]: 0.007 ± 0.005 µg/mL
- IC50 [3, 11]: 0.021 µM

SMILES: C=C1/C=C/[C@H](C(C)C)CC/C(C)=C/CC1 [germacrene D, Germacrene D]
- growth inhibition of T. cruzi trypomastigotes (T. cruzi trypomastigotes): 61%
- IC50 cruzain (cruzain): 22.1 µg/mL (≈ 108 µM)

SMILES: N=C(N)c1ccc(OCCCCCOc2ccc(C(=N)N)cc2)cc1 [pentamidine, reference compound]
- IC50 [5, 14]: 0.057 ± 0.008 µg/mL
- IC50 [5, 15]: 0.097 µM

SMILES: Cc1ccc(C(=O)Nc2ccc(S(=O)(=O)O)c3cc(S(=O)(=O)O)cc(S(=O)(=O)O)c23)cc1NC(=O)c1cccc(NC(=O)Nc2cccc(C(=O)Nc3cc(C(=O)Nc4ccc(S(=O)(=O)O)c5cc(S(=O)(=O)O)cc(S(=O)(=O)O)c45)ccc3C)c2)c1 [suramine, reference compound]
- IC50 [4, 12]: 0.031 ± 0.012 µg/mL
- IC50 [4, 13]: 0.022 µM
